Laboratory results as given in US20150246093A1, “ORAL FORMULATIONS OF ANGIOTENSIN” (TARIX PHARMACEUTICALS LTD., priority 2012, published 2015).
Where “and” joins values, the source holds several entries; their conditions need not be identical. Identical values can stand only once. Like-named read-outs stand apart in the source and are kept apart here.

Assay: Pharmacokinetics after subcutaneous (SC) administration of angiotensin (1-7) in PBS, plasma LC-MS
Assay type: in vivo, female Sprague-Dawley rats
Settings: for AUC(0-t): read-out: AUC0-90 (converted)
Procedure: Initially, a baseline pharmacokinetic profile in female Sprague-Dawley rats was obtained by subcutaneous (SC) administration of angiotensin (1-7) in phosphate buffered saline (PBS). […]
After extraction, the samples were then transferred to ice-cold tubes containing a protease inhibitor cocktail. The samples were kept on ice until they were centrifuged at 4° C. to obtain plasma. The plasma supernatants were then frozen −70° C. until analysis using an LC-MS assay.
Table 1 summarized exemplary individual baseline A(1-7) levels achieved at the designated time points and the non-compartmental PK values. Three rats were administered 0.3 mL of 10 mg/mL A(1-7) as a subcutaneous injection. The pharmacokinetics of A(1-7) were determined using a non-compartmental model, where individual pharmacokinetics were determined. The mean concentration for each time point was calculated and the PK values for these mean values were estimated. The Tmax was achieved approximately 10 to 90 minutes after administration. Half-lives are approximately 15 minutes for this treatment group. Total mean A(1-7) exposure over the observation period was 614 ng*min/mL with a range of 585 to 656 ng*min/mL.

[1] = SC 0.3 mL of 10 mg/mL A(1-7) in PBS, individual rats

In the case of CC[C@H](C)[C@H](NC(=O)[C@H](Cc1ccc(O)cc1)NC(=O)[C@@H](NC(=O)[C@H](CCCNC(=N)N)NC(=O)[C@@H](N)CC(=O)O)C(C)C)C(=O)N[C@@H](Cc1c[nH]cn1)C(=O)N1CCC[C@H]1C(=O)O [Angiotensin (1-7), Asp^1-Arg^2-Val^3-Tyr^4-Ile^5-His^6-Pro^7], the “Total mean A(1-7) exposure over the observation period” value (0.3 mL of 10 mg/mL A(1-7) subcutaneous injection, three rats) is reported as 614 ng·min/mL, the AUC0-90 [1] is reported as 598.1 ng·min/mL and 656.1 ng·min/mL and the Cmax [1] is reported as 15.7 ng/mL and 17.4 ng/mL. For the same molecule, the Half-Life [1] was 15.58 min, the “Angiotensin (1-7) concentration” value (SC 0.3 mL of 10 mg/mL A(1-7) in PBS, time point 0 min (before injection), individual rats) was 0.121 ng/mL and 10.2 ng/mL and 1.41 ng/mL and the “Angiotensin (1-7) concentration” value (SC 0.3 mL of 10 mg/mL A(1-7) in PBS, time point 5 min, individual rats) was 0.120 ng/mL and 7.47 ng/mL and 4.37 ng/mL. The “Angiotensin (1-7) concentration” value (SC 0.3 mL of 10 mg/mL A(1-7) in PBS, time point 10 min, individual rats) was 18.6 ng/mL and 0.94 ng/mL and 1.09 ng/mL, the “Angiotensin (1-7) concentration” value (SC 0.3 mL of 10 mg/mL A(1-7) in PBS, time point 20 min, individual rats) was 6.25 ng/mL and 15.7 ng/mL and 5.71 ng/mL and the “Angiotensin (1-7) concentration” value (SC 0.3 mL of 10 mg/mL A(1-7) in PBS, time point 40 min, individual rats) was 15.30 ng/mL and 6.38 ng/mL and 4.47 ng/mL. For the same molecule, the “Angiotensin (1-7) concentration” value (SC 0.3 mL of 10 mg/mL A(1-7) in PBS, time point 60 min, individual rats) was 1.03 ng/mL and 2.65 ng/mL and 7.46 ng/mL, the “Angiotensin (1-7) concentration” value (SC 0.3 mL of 10 mg/mL A(1-7) in PBS, time point 90 min, individual rats) was 1.14 ng/mL and 6.59 ng/mL and 17.4 ng/mL and the level at 0 h (female, Sprague-Dawley, rat, plasma, 3 mg, SC 0.3 mL of 10 mg/mL A(1-7) in PBS, time point 0 min (before injection), Average, read-out: Angiotensin (1-7) concentration) was 4.5 ng/mL. For the same molecule, the level at 5 min (female, Sprague-Dawley, rat, plasma, 3 mg, SC 0.3 mL of 10 mg/mL A(1-7) in PBS, time point 5 min, Average, read-out: Angiotensin (1-7) concentration) was 3.99 ng/mL, the level at 10 min (female, Sprague-Dawley, rat, plasma, 3 mg, SC 0.3 mL of 10 mg/mL A(1-7) in PBS, time point 10 min, Average, read-out: Angiotensin (1-7) concentration) was 6.88 ng/mL and the level at 20 min (female, Sprague-Dawley, rat, plasma, 3 mg, SC 0.3 mL of 10 mg/mL A(1-7) in PBS, time point 20 min, Average, read-out: Angiotensin (1-7) concentration) was 9.22 ng/mL. The level at 40 min (female, Sprague-Dawley, rat, plasma, 3 mg, SC 0.3 mL of 10 mg/mL A(1-7) in PBS, time point 40 min, Average, read-out: Angiotensin (1-7) concentration) was 8.72 ng/mL, the level at 1 h (female, Sprague-Dawley, rat, plasma, 3 mg, SC 0.3 mL of 10 mg/mL A(1-7) in PBS, time point 60 min, Average, read-out: Angiotensin (1-7) concentration) was 3.71 ng/mL and the level at 1.5 h (female, Sprague-Dawley, rat, plasma, 3 mg, SC 0.3 mL of 10 mg/mL A(1-7) in PBS, time point 90 min, Average, read-out: Angiotensin (1-7) concentration) was 8.38 ng/mL. The Tmax (female, Sprague-Dawley, rat, plasma, sc, 3 mg, 0.3 mL of 10 mg/mL A(1-7) subcutaneous injection, three rats, range over the group, read-out: Tmax after administration) was 10 to 90 min, the Half-Life (female, Sprague-Dawley, rat, plasma, sc, 3 mg, 0.3 mL of 10 mg/mL A(1-7) subcutaneous injection, three rats, read-out: Half-lives) was roughly 15 min and the AUC(0-t) (female, Sprague-Dawley, rat, plasma, sc, 3 mg, SC 0.3 mL of 10 mg/mL A(1-7) in PBS, Average (PK value of the mean concentrations)) was 10.2 ng·h/mL. It also gave a Cmax (female, Sprague-Dawley, rat, plasma, sc, 3 mg, SC 0.3 mL of 10 mg/mL A(1-7) in PBS, Average (PK value of the mean concentrations), read-out: Cmax) of 9.2 ng/mL, a Tmax (female, Sprague-Dawley, rat, plasma, sc, 3 mg, SC 0.3 mL of 10 mg/mL A(1-7) in PBS, Average (PK value of the mean concentrations), read-out: Tmax (converted)) of 20 min and an AUC(0-t) (female, Sprague-Dawley, rat, plasma, sc, 3 mg, SC 0.3 mL of 10 mg/mL A(1-7) in PBS, Mean PK Value (average of individual PK parameters)) of 10.2 ng·h/mL. The Cmax (female, Sprague-Dawley, rat, plasma, sc, 3 mg, SC 0.3 mL of 10 mg/mL A(1-7) in PBS, Mean PK Value (average of individual PK parameters), read-out: Cmax) was 17.2 ng/mL, the Half-Life (female, Sprague-Dawley, rat, plasma, sc, 3 mg, SC 0.3 mL of 10 mg/mL A(1-7) in PBS, Mean PK Value (average of individual PK parameters), read-out: Half-Life) was 15.1 min and the Tmax (female, Sprague-Dawley, rat, plasma, sc, 3 mg, SC 0.3 mL of 10 mg/mL A(1-7) in PBS, Mean PK Value (average of individual PK parameters), read-out: Tmax (converted)) was 40 min. For the same molecule, the AUC(0-t) (female, Sprague-Dawley, rat, plasma, sc, 3 mg, SC 0.3 mL of 10 mg/mL A(1-7) in PBS, individual rats) was 9.72 ng·h/mL, the Cmax (female, Sprague-Dawley, rat, plasma, sc, 3 mg, SC 0.3 mL of 10 mg/mL A(1-7) in PBS, individual rats, read-out: Cmax) was 18.6 ng/mL and the Half-Life (female, Sprague-Dawley, rat, plasma, sc, 3 mg, SC 0.3 mL of 10 mg/mL A(1-7) in PBS, individual rats, read-out: Half-Life) was 15 min.
